Results published in patent publication US12208097B2, “Protein kinase C inhibitors for treatment of uveal melanoma” (NOVARTIS AG, priority 2017, dated 2025).

Key:
[1] = system: phosphorylated PKC delta (pPKC delta); assay: Phase I trial: target engagement in on-treatment tumor biopsies (pPKC delta); assay type: in vivo, human
From the text: (§1) LXS196 led to reduction of phosphorylated myristoylated, alanine-rich C kinase substrate (pMARCKS) and phosphorylated PKC delta (pPKC delta), evident of target engagement in on-treatment tumor biopsies.

[2] = Phase I trial: pharmacokinetic (PK) studies; assay type: in vivo, human
Experimental: (§2) A phase 1, multicenter, open-label, single-arm study of Compound I was performed in patients with metastatic uveal melanoma. A Bayesian logistic regression model, employing the escalation with overdose control principle, was used to guide the dose escalation and to estimate the maximum tolerated dose (MTD)/recommended dose for expansion (RDE). Safety was described using incidence of adverse events (AEs) by relation and severity of the AE graded according to the Common Terminology Criteria for AEs (CTCAE, v4.03). Overall response rate was defined as per Response Evaluation Criteria in Solid Tumors (RECIST, v1.1).
as §1

[3] = system: phosphorylated myristoylated, alanine-rich C kinase substrate (pMARCKS); assay: Phase I trial: target engagement in on-treatment tumor biopsies (pMARCKS); assay type: in vivo, human
From the text: as §1

[4] = Phase I trial of Compound I in patients with metastatic uveal melanoma: safety, DLT, MTD/RDE; assay type: in vivo
Experimental: as §2
(§3) Patients eligible for inclusion in this study have to meet all of the following key criteria: • Metastatic uveal melanoma (histologically or cytologically confirmed) that is judged to be progressive; patients may be treatment naive or have had any number of lines of prior therapy. • Measurable disease, defined as at least one lesion that can be accurately measured in at least one dimension (longest diameter to be recorded) as >20 mm with conventional techniques or as >10 mm with CT scan. • ECOG performance status ≤1
Patients eligible for this study must not meet any of the following criteria: • Malignant disease other than that being treated in this study • Symptomatic or untreated leptomeningeal or brain metastases or spinal cord compression. Treated brain metastases must have been stable for at least 1 month. • Impaired cardiac function or clinically significant cardiac diseases • Patients with abnormal laboratory values as defined by the protocol • Systemic anti-cancer therapy within 2 weeks of the first dose of study treatment. For cytotoxic agents that have major delayed toxicity, e.g. mitomycin C and nitrosoureas, and for anti-PD-1 or PD-L1 antibodies 4 weeks is indicated as the washout period. For patients receiving a CTLA-4 antagonist or vaccine as anticancer therapy, 6 weeks is indicated as the washout period. Patients must have recovered or stabilized from toxicities related to their previous treatment except for alopecia.
As of the data of Jun. 12, 2017, 55 patients received Compound I (i.e., LXS196) at doses ranging from 100 mg to 1000 mg once daily (QD; 38 patients or “pts”) and 200 mg to 400 mg twice daily (BID; 17 pts). Dose limiting toxicities (DLTs) were reported in 7 of 38 pts (QD schedule) and in 1 of 12 pts (BID schedule). The most common DLT was hypotension, manageable with LXS196 interruption and dose reduction. MTDs were determined at 500 mg QD and 400 mg BID. Due to better overall tolerability the RDE is 300 mg BID. Most common AEs (all grade, in ≥20% of pts) suspected related to LXS196 in pts across both schedules (n=55) were nausea (58.2%), diarrhea (32.7%), vomiting (25.5%), hypotension (25.5%), fatigue (20%) and asthenia (20%). The majority of GI and constitutional AEs were grade (gr) ½. Gr ¾ AEs suspected related to LXS196 were reported in 12 pts (21.8%), the most common being hypotension (10.9%). All other gr ¾ AEs occurred in ≤2 pts (3.6%) each.

[5] = system: MP46 (GNAQmut) uveal melanoma xenograft; assay: Patient derived uveal melanoma xenograft model MP46; assay type: in vivo, female SCID mice; conditions: 35 days post dosing
From the text: The anti-tumor activity and tolerability of Compound I (i.e., LXS196) and the MDM2 inhibitor (Compound III or its salt thereof) was investigated in vivo using two patient derived uveal melanoma xenograft models, MP46 (GNAQmut) and MP55 (GNA11mut/BAP1 null).
(§4) MP46 and MP55 uveal melanoma tumors were established in female SCID mice by subcutaneous implantation of 3×3×3 mm tumor fragments into the flank of each mouse. When tumors reached approximately 100 mm^3, mice were randomized according to tumor volume into treatment groups (n=8-10/group). Test agents were administered orally once (QD) or twice daily (BID) at the dose levels indicated. Tumor volumes of treatment groups are plotted from the time the treatment groups were randomized, and dosing commenced.

[6] = system: MP55 (GNA11mut/BAP1 null) uveal melanoma xenograft; assay: Patient derived uveal melanoma xenograft model MP55; assay type: in vivo, female SCID mice
From the text: as §4, with “The anti-tumor activity and tolerability of Compound […]196) and the MDM2 inhibitor (Compound III or its salt thereof) was investigated in vivo using two patient derived uveal melanoma xenograft models, MP46 (GNAQmut) and MP55 (GNA11mut/BAP1 null). MP46” for “MP46”

[7] = system: metastatic uveal melanoma; assay: Phase I trial: tumor response per RECIST v1.1; assay type: in vivo, human; conditions: in 68 evaluable pts
Experimental: as §2, §3
In 68 evaluable pts, 6 had confirmed partial responses (PR) per RECIST v 1.1 (300 mg QD, 500 mg QD, 200 mg BID, 2 at 300 mg BID, 400 mg BID). A further 45 pts had stable disease as best overall response. […]

UM cell lines = conditions: with RITA and Topotecan; cited from earlier work

## CC1(N)CCN(c2cccnc2NC(=O)c2nc(-c3ncccc3C(F)(F)F)cnc2N)CC1 [LXS196, 3-amino-N-(3-(4-amino-4-methylpiperidin-1-yl)pyridin-2-yl)-6-(3-(trifluoromethyl)pyridin-2-yl)pyrazine-2-carboxamide]
[1]
  Effect on pPKC delta: reduction
[2]; doses above 300 mg QD and 200 mg BID
  Exposure: in the efficacious range from preclinical projections
[2]; human, in vivo, oral, consistent across different doses, read-out: terminal T½ (converted)
  half-life: ~10 h
[2]; human, in vivo, post dose, patients, oral
  Tmax: ~1 h
[3]
  Effect on pMARCKS: reduction
[4]; human, in vivo
  AE asthenia, all grade, suspected related: 20%
  AE diarrhea, all grade, suspected related: 32.7%
  AE fatigue, all grade, suspected related: 20%
  AE hypotension, all grade, suspected related: 25.5%
  AE nausea, all grade, suspected related: 58.2%
  AE vomiting, all grade, suspected related: 25.5%
  All other gr ¾ AEs, each, number of patients: ≤ 2 pts
  All other gr ¾ AEs, each, share of patients: ≤ 3.6%
  Gr ¾ AEs suspected related, number of patients: 12 pts
  Gr ¾ AEs suspected related, share of patients: 21.8%
  Gr ¾ hypotension (most common gr ¾ AE): 10.9%
  Grade of the majority of GI and constitutional AEs: grade (gr) ½
  Most common DLT: hypotension
  RDE (recommended dose for expansion): 300 mg BID
[4]; once daily schedule
  MTD: 500 mg QD
[4]; twice daily schedule
  MTD: 400 mg BID
[5]; MP46, 120 mg/kg BID oral
  regression: 63%
[6]; MP55, 120 mg/kg BID oral
  T/C: 20%
[7]
  Stable disease as best overall response: 45 pts
[7]; 300 mg QD, 500 mg QD, 200 mg BID, 2 at 300 mg BID, 400 mg BID
  Confirmed partial responses (PR) per RECIST v 1.1: 6 pts

## COc1cc2c(cc1OC(C)C)[C@H](c1ccc(Cl)cc1)N(c1ccc(N(C)C[C@H]3CC[C@H](N4CCN(C)C(=O)C4)CC3)cc1)C(=O)C2 [Compound III, (S)-1-(4-chloro-phenyl)-7-isopropoxy-6-methoxy-2-(4-{methyl-[4-(4-methyl-3-oxo-piperazin-1-yl)-trans-cyclohexylmethyl]-amino}-phenyl)-1,4-dihydro-2H-isoquinolin-3-one]
[5]; MP46, 100 mg/kg QD oral
  treatment/control (T/C): 39%
[6]; MP55, 100 mg/kg QD oral
  T/C: 20%

## COc1ccc(C2=N[C@@H](c3ccc(Cl)cc3)[C@@H](c3ccc(Cl)cc3)N2C(=O)N2CCNC(=O)C2)c(OC(C)C)c1 [Nutlin-3]
UM cell lines
  Combination effect on growth inhibition: synergistically
